Experimental findings from patent US12544391B2, “CD73 inhibitors” (ORIC Pharmaceuticals, Inc., priority 2019, dated 2026) are described below.

The target of test [1] is T1, CD73 (Homo sapiens, UniProt P21589).
T1 sequence (P21589 27-549): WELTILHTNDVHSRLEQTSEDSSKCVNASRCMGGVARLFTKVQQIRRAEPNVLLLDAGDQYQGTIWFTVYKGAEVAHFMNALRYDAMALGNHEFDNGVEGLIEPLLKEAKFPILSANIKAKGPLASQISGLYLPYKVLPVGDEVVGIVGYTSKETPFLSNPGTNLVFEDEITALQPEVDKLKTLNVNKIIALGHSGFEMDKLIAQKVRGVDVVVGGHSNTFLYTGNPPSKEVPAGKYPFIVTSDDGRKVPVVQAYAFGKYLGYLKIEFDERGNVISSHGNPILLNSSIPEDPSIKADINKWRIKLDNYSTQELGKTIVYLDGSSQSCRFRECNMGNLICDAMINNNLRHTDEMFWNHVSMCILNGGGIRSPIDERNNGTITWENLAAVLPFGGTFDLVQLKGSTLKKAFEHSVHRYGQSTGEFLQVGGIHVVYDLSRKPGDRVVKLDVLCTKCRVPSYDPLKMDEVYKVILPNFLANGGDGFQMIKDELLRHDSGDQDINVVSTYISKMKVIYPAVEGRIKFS
Nature of the test: CD73 biochemical assay, Malachite Green detection of AMP hydrolysis. The settings on record: CD73 320 pM, AMP 15 μM, Malachite Green readout. The procedure, abridged: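 Human CD73 (0.3208 nM, i.e. 320 pM) preincubated 15 min RT with compounds (10-point ½-log titration from 100 μM, duplicates) in Tris pH 7.4, 5 mM MgCl2, Brij-35, BSA; 15 μM AMP added, 10 min RT. Phosphate read by Malachite Green absorbance; IC50 determined.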

The target in test [2] is T2, mouse CD73 (EMT6 breast cancer cells) (Mus musculus, UniProt Q61503).
T2 construct: mouse EMT6 breast cancer cells which express endogenous CD73 on their surface; host or cells: EMT6 (mouse breast cancer)
T2 sequence (Q61503 29-551): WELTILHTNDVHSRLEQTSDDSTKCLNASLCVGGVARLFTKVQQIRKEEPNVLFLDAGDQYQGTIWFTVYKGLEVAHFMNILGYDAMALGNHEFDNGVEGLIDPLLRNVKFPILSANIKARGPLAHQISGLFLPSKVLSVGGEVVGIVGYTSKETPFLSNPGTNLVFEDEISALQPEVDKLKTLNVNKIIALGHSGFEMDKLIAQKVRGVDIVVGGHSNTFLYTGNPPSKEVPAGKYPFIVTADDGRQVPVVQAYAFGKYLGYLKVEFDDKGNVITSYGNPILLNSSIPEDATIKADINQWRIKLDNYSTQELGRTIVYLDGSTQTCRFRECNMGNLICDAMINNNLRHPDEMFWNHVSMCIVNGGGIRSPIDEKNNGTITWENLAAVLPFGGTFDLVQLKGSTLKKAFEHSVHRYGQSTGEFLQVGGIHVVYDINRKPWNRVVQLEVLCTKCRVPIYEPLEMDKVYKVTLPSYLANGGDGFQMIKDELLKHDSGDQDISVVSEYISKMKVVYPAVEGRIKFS
Put plainly: Cellular CD73 assay in mouse EMT6 breast cancer cells, adenosine by LC-MS/MS. It counts as cell-based. The following applies: PBS/3% BSA, adenosine in supernatant. As to the method: (§1) Activity of cell bound CD73 was assessed by direct measurement of adenosine produced from AMP using liquid chromatography with tandem mass-spectrometry (LC-MS/MS). Human NSCLC H1568 cells expressing endogenous CD73 on their surface were obtained from ATCC(CRL-5876) and cultured in growth medium (RPMI, 10% FBS, 1 mM L-glutamine, 100 mL penicillin-streptomycin). Cells were seeded onto 96-well tissue culture plates at 10,000 cells/well and allowed to adhere for 20-24 h. 500× serial compound dilutions were prepared in DMSO in a 12-point 3-fold titration, and then diluted 1:50 into RPMI supplemented with 10% human plasma (BioIVT, cat #HMPLEDTA5) generating 10× compound dilutions. Growth medium was removed from the cells and replaced with […] of RPMI/10% human plasma. 10 mL of 10× compound dilutions were then added to the cells and incubated for 15 min at 37° C., 5% CO2. Then 10 mL of 100 mM AMP/50 mM EHNA (Sigma-Aldrich, A1752 and E114) were added to a final concentration of 10 mM AMP/5 mM EHNA. After 1 h incubation at 37° C., 5% CO2, 80 mL of supernatant was removed from the cells and transferred to a deep well polypropylene 96-well plate (Costar #3961) prefilled with 240 mL of organic solvent composed of methanol:acetonitrile (1:1, v/v) with 0.1% formic acid, plus 150 ng/mL of Adenosine-15N and AMP-13C as internal standards. Amount of unlabeled adenosine and AMP in each well was measured on AB Sciex API 4000 QTrap with Shimadzu LC-30AD UPLC system. Limits of adenosine and AMP detection were 10-10,000 nM and 20-10,000 nM, respectively. The IC50 values were determined based on amount of adenosine in the supernatant using four parameter non-linear regression curve fit. DMSO treated cells produced 3000-4000 nM adenosine under these conditions with negligible variability on the same day assays. Small amount of adenosine generated from AMP in the absence of cells (less than 100 nM) was used as 100% inhibition control.
To determine activity of compounds on mouse CD73 mouse EMT6 breast cancer cells which express endogenous CD73 on their surface (ATCC, CRL-2755) were used. […]

Test [3] deals with T3, cell bound CD73 on Human NSCLC H1568 cells (Homo sapiens, UniProt P21589).
T3 construct: Human NSCLC H1568 cells expressing endogenous CD73 on their surface; host or cells: H1568 (human NSCLC)
T3 sequence (P21589 27-549): T1 sequence (P21589 27-549)
Nature of the test: Cellular CD73 assay in H1568 cells, adenosine produced from AMP by LC-MS/MS. The settings on record: RPMI/10% human plasma, 1 h with AMP/EHNA, adenosine in supernatant. It counts as cell-based. As to the method: as §1, with “control. […]” for “control.”

Each structure is given as a SMILES string.

Regarding `COC[C@](COCc1nn[nH]n1)(OC[C@H]1O[C@@H](c2ccc3c(NC4CCCC4)nc(Cl)nn23)[C@H](O)[C@@H]1O)P(=O)(O)O` (single isomer, unassigned) [Example 9], in test [1], the IC50 was ≤ 0.5 nM. Moreover, the EC50 in test [2] and in test [3] was ≤ 0.5 nM in each case.

In the case of `O=P(O)(O)[C@@](CO)(COCc1nn[nH]n1)OC[C@H]1O[C@@H](c2ccc3c(NC4CCCC4)nc(Cl)nn23)[C@H](O)[C@@H]1O` [Example 15, ((S)-1-((2H-Tetrazol-5-yl)methoxy)-2-(((2R,3S,4R,5S)-5-(2-chloro-4-(cyclopentylamino)pyrrolo[2,1-f][1,2,4]triazin-7-yl)-3,4-dihydroxytetrahydrofuran-2-yl)methoxy)-3-hydroxypropan-2-yl)phosphonic acid], in test [1], the IC50 was ≤ 0.5 nM. Also, the EC50 in test [2] fell in the range of 1 to 100 nM; in test [3], 0.5 to 1 nM.

As to `O=P(O)(O)[C@@](CO)(COCc1nn[nH]n1)OC[C@H]1O[C@@H](c2ccc3c(NC4CCC4)nc(Cl)nn23)[C@H](O)[C@@H]1O` [Example 51, ((S)-1-((2H-tetrazol-5-yl)methoxy)-2-(((2R,3S,4R,5S)-5-(2-chloro-4-(cyclobutylamino)pyrrolo[2,1-f][1,2,4]triazin-7-yl)-3,4-dihydroxytetrahydrofuran-2-yl)methoxy)-3-hydroxypropan-2-yl)phosphonic acid], the IC50 in test [1] is ≤ 0.5 nM. Moreover, the results for the EC50 in test [2] and in test [3] were 0.5 to 1 nM and ≤ 0.5 nM, respectively.

On to `O=P(O)(O)[C@@](CO)(COCc1nn[nH]n1)OC[C@H]1O[C@@H](c2ccc3c(NCC4CCC4)nc(Cl)nn23)[C@H](O)[C@@H]1O` [Example 52, ((S)-1-((2H-tetrazol-5-yl)methoxy)-2-(((2R,3S,4R,5S)-5-(2-chloro-4-((cyclobutylmethyl)amino)pyrrolo[2,1-f][1,2,4]triazin-7-yl)-3,4-dihydroxytetrahydrofuran-2-yl)methoxy)-3-hydroxypropan-2-yl)phosphonic acid], for which, in test [1], the IC50 was ≤ 0.5 nM.

As for `O=P(O)(O)[C@](CO)(COCc1nn[nH]n1)OC[C@H]1O[C@@H](c2ccc3c(NCC4CCC4)nc(Cl)nn23)[C@H](O)[C@@H]1O` [Example 53, ((R)-1-((2H-tetrazol-5-yl)methoxy)-2-(((2R,3S,4R,5S)-5-(2-chloro-4-((cyclobutylmethyl)amino)pyrrolo[2,1-f][1,2,4]triazin-7-yl)-3,4-dihydroxytetrahydrofuran-2-yl)methoxy)-3-hydroxypropan-2-yl)phosphonic acid], the IC50 in test [1] was 1 to 100 nM.

As for `O=P(O)(O)[C@](CO)(COCc1nn[nH]n1)OC[C@H]1O[C@@H](c2ccc3c(NCC4CC4)nc(Cl)nn23)[C@H](O)[C@@H]1O` [Example 54, ((R)-1-((2H-tetrazol-5-yl)methoxy)-2-(((2R,3S,4R,5S)-5-(2-chloro-4-((cyclopropylmethyl)amino)pyrrolo[2,1-f][1,2,4]triazin-7-yl)-3,4-dihydroxytetrahydrofuran-2-yl)methoxy)-3-hydroxypropan-2-yl)phosphonic acid], in test [1], the IC50 fell in the range of 1 to 100 nM.

Consider `[2H]C([2H])([2H])OC[C@](COCc1nn[nH]n1)(OC[C@H]1O[C@@H](c2ccc3c(NC4CCCC4)nc(Cl)nn23)[C@H](O)[C@@H]1O)P(=O)(O)O` [Example 55, ((S)-1-((2H-tetrazol-5-yl)methoxy)-2-(((2R,3S,4R,5S)-5-(2-chloro-4-(cyclopentylamino)pyrrolo[2,1-f][1,2,4]triazin-7-yl)-3,4-dihydroxytetrahydrofuran-2-yl)methoxy)-3-(methoxy-d3)propan-2-yl)phosphonic acid], for which the IC50 in test [1] is ≤ 0.5 nM.

In test [1], `COCC(CO)(OC[C@H]1O[C@@H](c2cnn3c(NC4CCCC4)cc(Cl)nc23)[C@H](O)[C@@H]1O)P(=O)(O)O` (stereo partly drawn) [Example 56, (2-(((2R,3S,4R,5S)-5-(5-chloro-7-(cyclopentylamino)pyrazolo[1,5-a]pyrimidin-3-yl)-3,4-dihydroxytetrahydrofuran-2-yl)methoxy)-1-hydroxy-3-methoxypropan-2-yl)phosphonic acid] gave an IC50 of 1 to 100 nM.

Regarding `COCC(COCc1nn[nH]n1)(OC[C@H]1O[C@@H](c2cnn3c(NC4CCCC4)cc(Cl)nc23)[C@H](O)[C@@H]1O)P(=O)(O)O` (stereo partly drawn) [Example 57, (1-((2H-tetrazol-5-yl)methoxy)-2-(((2R,3S,4R,5S)-5-(5-chloro-7-(cyclopentylamino)pyrazolo[1,5-a]pyrimidin-3-yl)-3,4-dihydroxytetrahydrofuran-2-yl)methoxy)-3-methoxypropan-2-yl)phosphonic acid], the IC50 in test [1] was ≤ 0.5 nM.
